Assays:
p110 alpha PI3K = molecular target: T1, p110 alpha PI3K (Homo sapiens, UniProt P42336); test: p110α (alpha) PI3K Binding Assay (fluorescence polarization; alternatively radiometric); type: biochemical; details: tested for PI3K activity according to the methods of this invention
T1 construct: purchased Upstate Cell Signaling Solutions, Charlottesville, Va
Description: Binding Assays: Initial polarization experiments were performed on an Analyst HT 96-384 (Molecular Devices Corp, Sunnyvale, Calif.). Samples for fluorescence polarization affinity measurements were prepared by addition of 1:3 serial dilutions of p110 alpha PI3K (Upstate Cell Signaling Solutions, Charlottesville, Va.) starting at a final concentration of 20 ug/mL in polarization buffer (10 mM Tris pH 7.5, 50 mM NaCl, 4 mM MgCl2, 0.05% Chaps, and 1 mM DTT) to 10 mM PIP2 (Echelon-Inc., Salt Lake City, Utah.) final concentration. After an incubation time of 30 minutes at room temperature, the reactions were stopped by the addition of GRP-1 and PIP3-TAMRA probe (Echelon-Inc., Salt Lake City, Utah.) 100 nM and 5 nM final concentrations respectively. […] This experiment also establishes the appropriate protein concentration to use in subsequent competition experiments with inhibitors.
Inhibitor IC50 values were determined by addition of the 0.04 mg/mL p110 alpha PI3K (final concentration) combined with PIP2 (10 mM final concentration) to wells containing 1:3 serial dilutions of the antagonists in a final concentration of 25 mM ATP (Cell Signaling Technology, Inc., Danvers, Mass.) in the polarization buffer. After an incubation time of 30 minutes at room temperature, the reactions were stopped by the addition of GRP-1 and PIP3-TAMRA probe (Echelon-Inc., Salt Lake City, Utah.) 100 nM and 5 nM final concentrations respectively.
Alternatively, inhibition of PI3K was determined in a radiometric assay using purified, recombinant enzyme and ATP at a concentration of 1 uM. The Formula I compound was serially diluted in 100% DMSO. The kinase reaction was incubated for 1 h at room temperature, and the reaction was terminated by the addition of PBS. IC50 values were subsequently determined using sigmoidal dose-response curve fit (variable slope).

PC3 = test: In Vitro Cell Proliferation Assay (CellTiter-Glo), PC3; type: cell-based; details: Homo sapiens, PC-3; PC3, Prostate, mutation status PTEN
Description: (§1) The in vitro potency of Formula I exemplary compounds was measured by the cell proliferation assay, CellTiter-Glo® Luminescent Cell Viability Assay, commercially available from Promega Corp., Madison, Wis. (Example 33). This homogeneous assay method is based on the recombinant expression of Coleoptera luciferase (U.S. Pat. No. 5,583,024; U.S. Pat. No. 5,674,713; U.S. Pat. No. 5,700,670) and determines the number of viable cells in culture based on quantitation of the ATP present, an indicator of metabolically active cells (Crouch et al (1993) J. Immunol. Meth. 160:81-88; U.S. Pat. No. 6,602,677).
(§2) format, making it amenable to automated high-throughput screening (HTS) (Cree et al (1995) Anti Cancer Drugs 6:398-404). The homogeneous assay procedure involves adding the single reagent (CellTiter-Glo® Reagent) directly to cells cultured in serum-supplemented medium. Cell washing, removal of medium and multiple pipetting steps are not required. The system detects as few as 15 cells/well in a 384-well format in 10 minutes after adding reagent and mixing.
(§3) The homogeneous “add-mix-measure” format results in cell lysis and generation of a luminescent signal proportional to the amount of ATP present. The amount of ATP is directly proportional to the number of cells present in culture. The CellTiter-Glo® Assay generates a “glow-type” luminescent signal, produced by the luciferase reaction, which has a half-life generally greater than five hours, depending on cell type and medium used. Viable cells are reflected in relative luminescence units (RLU). The substrate, Beetle Luciferin, is oxidatively decarboxylated by recombinant firefly luciferase with concomitant conversion of ATP to AMP and generation of photons. The extended half-life eliminates the need to use reagent injectors and provides flexibility for continuous or batch mode processing of multiple plates. This cell proliferation assay an be used with various multiwell formats, e.g. 96 or 384 well format. Data can be recorded by luminometer or CCD camera imaging device. The luminescence output is presented as relative light units (RLU), measured over time.
(§4) Efficacy of Formula I compounds were measured by a cell proliferation assay employing the following protocol (Promega Corp. Technical Bulletin TB288; Mendoza et al (2002) Cancer Res. 62:5485-5488):
(§5) 1. An aliquot of 100 n1 of cell culture containing about 10^4 cells (PC3, Detroit562, or MDAMB361.1) in medium was deposited in each well of a 384-well, opaque-walled plate.
(§6) 2. Control wells were prepared containing medium and without cells.
(§7) 3. The compound was added to the experimental wells and incubated for 3-5 days.
(§8) 4. The plates were equilibrated to room temperature for approximately 30 minutes.
(§9) 5. A volume of CellTiter-Glo Reagent equal to the volume of cell culture medium present in each well was added.
(§10) 6. The contents were mixed for 2 minutes on an orbital shaker to induce cell lysis.
(§11) 7. The plate was incubated at room temperature for 10 minutes to stabilize the luminescence signal.
(§12) 8. Luminescence was recorded and reported in graphs as RLU=relative luminescence units.
(§13) Alternatively, cells were seeded at optimal density in a 96 well plate and incubated for 4 days in the presence of test compound. Alamar Blue™ was subsequently added to the assay medium, and cells were incubated for 6 h before reading at 544 nm excitation, 590 nm emission. EC50 values were calculated using a sigmoidal dose response curve fit.
(§14) The anti-proliferative effects of Formula I exemplary compounds were measured by the CellTiter-Glo® Assay against various tumor cell lines, including the following: […]

MDA-MB-361.1 = test: In Vitro Cell Proliferation Assay (CellTiter-Glo), MDA-MB-361.1; type: cell-based; details: MDA-MB-361.1, Breast, mutation status PI3K
Description: as §1, §2, §3, §4, §5, §6, §7, §8, §9, §10, §11, §12, §13, §14

T1 sequence (P42336 whole entry): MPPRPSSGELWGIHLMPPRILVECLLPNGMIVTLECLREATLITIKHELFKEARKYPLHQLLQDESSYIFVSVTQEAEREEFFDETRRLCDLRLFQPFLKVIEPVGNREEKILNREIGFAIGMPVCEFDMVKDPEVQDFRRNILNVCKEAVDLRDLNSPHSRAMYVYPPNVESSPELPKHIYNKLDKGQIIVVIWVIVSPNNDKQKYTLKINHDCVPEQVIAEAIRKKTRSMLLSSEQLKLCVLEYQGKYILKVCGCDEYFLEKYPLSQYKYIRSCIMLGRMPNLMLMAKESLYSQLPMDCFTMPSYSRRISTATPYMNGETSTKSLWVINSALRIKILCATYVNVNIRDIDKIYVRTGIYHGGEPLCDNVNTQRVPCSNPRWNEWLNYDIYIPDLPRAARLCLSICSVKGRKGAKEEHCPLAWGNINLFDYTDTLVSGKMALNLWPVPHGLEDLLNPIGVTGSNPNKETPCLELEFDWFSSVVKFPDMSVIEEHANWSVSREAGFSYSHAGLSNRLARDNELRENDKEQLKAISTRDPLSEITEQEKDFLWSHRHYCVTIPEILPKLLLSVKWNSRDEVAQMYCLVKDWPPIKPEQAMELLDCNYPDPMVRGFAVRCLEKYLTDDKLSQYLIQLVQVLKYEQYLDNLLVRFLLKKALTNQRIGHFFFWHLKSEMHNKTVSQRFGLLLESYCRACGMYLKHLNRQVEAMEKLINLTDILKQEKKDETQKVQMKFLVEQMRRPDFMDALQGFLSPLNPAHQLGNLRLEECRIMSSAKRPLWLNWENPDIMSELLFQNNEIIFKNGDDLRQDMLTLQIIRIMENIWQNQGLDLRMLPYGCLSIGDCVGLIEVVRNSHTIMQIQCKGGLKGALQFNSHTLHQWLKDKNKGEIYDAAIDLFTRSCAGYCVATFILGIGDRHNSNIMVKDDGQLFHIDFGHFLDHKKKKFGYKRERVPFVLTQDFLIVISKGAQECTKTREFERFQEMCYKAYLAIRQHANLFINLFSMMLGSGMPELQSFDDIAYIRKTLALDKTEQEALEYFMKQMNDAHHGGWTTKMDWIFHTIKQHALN
T1 sequence (P27986 whole entry partner): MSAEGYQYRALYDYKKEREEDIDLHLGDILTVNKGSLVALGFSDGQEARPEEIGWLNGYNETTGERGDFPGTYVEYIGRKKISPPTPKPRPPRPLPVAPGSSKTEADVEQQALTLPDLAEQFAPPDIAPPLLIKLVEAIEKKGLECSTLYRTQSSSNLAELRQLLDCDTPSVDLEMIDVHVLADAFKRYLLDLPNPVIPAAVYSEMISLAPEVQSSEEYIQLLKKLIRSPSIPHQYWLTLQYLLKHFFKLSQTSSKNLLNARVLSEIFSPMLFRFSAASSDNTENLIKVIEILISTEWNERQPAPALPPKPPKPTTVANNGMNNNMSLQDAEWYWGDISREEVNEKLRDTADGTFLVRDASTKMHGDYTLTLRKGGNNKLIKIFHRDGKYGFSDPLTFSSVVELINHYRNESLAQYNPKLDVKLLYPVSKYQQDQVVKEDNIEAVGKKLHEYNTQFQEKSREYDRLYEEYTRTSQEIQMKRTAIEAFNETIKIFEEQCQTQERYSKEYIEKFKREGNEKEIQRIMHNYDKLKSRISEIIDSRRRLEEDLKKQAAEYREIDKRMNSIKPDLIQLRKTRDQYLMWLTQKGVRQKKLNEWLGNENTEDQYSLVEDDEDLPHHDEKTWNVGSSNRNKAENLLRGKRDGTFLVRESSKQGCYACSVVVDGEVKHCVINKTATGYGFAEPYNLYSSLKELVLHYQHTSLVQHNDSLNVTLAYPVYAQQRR

| Compound | IC50 (p110 alpha PI3K) [nM] | EC50 (PC3) [nM] | EC50 (MDA-MB-361.1) [nM] |
| --- | --- | --- | --- |
| Cn1ncc2c(Oc3ccc(S(C)(=O)=O)cc3)cc(-c3ccnc(O)c3)nc21 [Compound 120, 4-(1-methyl-4-(4-(methylsulfonyl)phenoxy)-1H-pyrazolo[3,4-b]pyridin-6-yl)pyridin-2-ol] | 575 | – | – |
| COc1ccc(Oc2cc(-c3cccc4[nH]ncc34)nc3c2cnn3C)cc1OC [Compound 108, 4-(3,4-dimethoxyphenoxy)-6-(1H-indazol-4-yl)-1-methyl-1H-pyrazolo[3,4-b]pyridine] | 16 | – | – |
| Cn1ncc2c(Oc3ccc(S(C)(=O)=O)cc3)cc(-c3cccc4c(N)n[nH]c34)nc21 [Compound 105, 7-(1-methyl-4-(4-(methylsulfonyl)phenoxy)-1H-pyrazolo[3,4-b]pyridin-6-yl)-1H-indazol-3-amine] | 13.7 | – | – |
| Cn1ncc2c(Oc3ccc(S(C)(=O)=O)cc3)cc(-c3ccc4[nH]ncc4c3)nc21 [Compound 102, 6-(1H-indazol-5-yl)-1-methyl-4-(4-(methylsulfonyl)phenoxy)-1H-pyrazolo[3,4-b]pyridine] | 224 | – | – |
| Cn1ncc2c(Oc3ccc(S(C)(=O)=O)cc3)cc(-c3cccc4c(N)noc34)nc21 [Compound 121, 7-(1-methyl-4-(4-(methylsulfonyl)phenoxy)-1H-pyrazolo[3,4-b]pyridin-6-yl)benzo[d]isoxazol-3-amine] | 153 | – | – |
| COc1cccc(Oc2cc(-c3cccc4[nH]ncc34)nc3c2cnn3C)c1 [Compound 107, 6-(1H-indazol-4-yl)-4-(3-methoxyphenoxy)-1-methyl-1H-pyrazolo[3,4-b]pyridine] | 53 | – | – |
| Cn1ncc2c(-c3ccc(S(C)(=O)=O)cc3)cc(-c3cccc4[nH]ncc34)nc21 [Compound 115, 6-(1H-indazol-4-yl)-1-methyl-4-(4-(methylsulfonyl)phenyl)-1H-pyrazolo[3,4-b]pyridine] | – | 750 | 346 |
| Cc1cccc(C)c1Oc1cc(-c2cccc3[nH]ncc23)nc2c1cnn2C [Compound 106, 4-(2,6-dimethylphenoxy)-6-(1H-indazol-4-yl)-1-methyl-1H-pyrazolo[3,4-b]pyridine] | 399 | – | – |
| Cn1ncc2c(Nc3ccc(S(C)(=O)=O)cc3)cc(-c3cccc4[nH]ncc34)nc21 [Compound 104, 6-(1H-indazol-4-yl)-1-methyl-N-(4-(methylsulfonyl)phenyl)-1H-pyrazolo[3,4-b]pyridin-4-amine] | 2.23 | 2000 | 475 |
| Cn1ncc2c(Oc3ccc(S(C)(=O)=O)cc3)cc(-c3cccc4[nH]ncc34)nc21 [Compound 101, 6-(1H-indazol-4-yl)-1-methyl-4-(4-(methylsulfonyl)phenoxy)-1H-pyrazolo[3,4-b]pyridine] | – | 881 | 965 |
| Cn1ncc2c(-c3cccc(NS(C)(=O)=O)c3)cc(-c3cccc4[nH]ncc34)nc21 [Compound 113, N-(3-(6-(1H-indazol-4-yl)-1-methyl-1H-pyrazolo[3,4-b]pyridin-4-yl)phenyl)methanesulfonamide] | – | 561 | 749 |
| COc1ccc(-c2cc(Oc3ccc(S(C)(=O)=O)cc3)c3cnn(C)c3n2)cn1 [Compound 117, 6-(6-methoxypyridin-3-yl)-1-methyl-4-(4-(methylsulfonyl)phenoxy)-1H-pyrazolo[3,4-b]pyridine] | 47.5 | – | – |
| COc1cc(-c2cc(Oc3ccc(S(C)(=O)=O)cc3)c3cnn(C)c3n2)ccn1 [Compound 118, 6-(2-methoxypyridin-4-yl)-1-methyl-4-(4-(methylsulfonyl)phenoxy)-1H-pyrazolo[3,4-b]pyridine] | – | 4900 | 2400 |
| CNC(=O)c1cccc(-c2cc(-c3cccc4[nH]ncc34)nc3c2cnn3C)c1 [Compound 111, 3-(6-(1H-indazol-4-yl)-1-methyl-1H-pyrazolo[3,4-b]pyridine-4-yl)-N-methylbenzamide] | – | 2400 | 1000 |
| CCCNc1cc(-c2cccc3[nH]ncc23)nc2c1cnn2C [Compound 103, 6-(1H-indazol-4-yl)-1-methyl-N-propyl-1H-pyrazolo[3,4-b]pyridin-4-amine] | 82.8 | – | – |
